Active and inactive are the calls of the source. The rule behind the calls is not given here.
Columns and labels:
[1] = target: T1, Stimulator of interferon genes protein (Homo sapiens, UniProt Q86WV6); assay: Agonist activity at STING R232 mutant (unknown origin) expressed in digitonin -permeabilized HEK293T cells preincubated for 30 mins followed by washout and measured after 5 hrs by Bright-glo luciferase assay; format: cell-based
Target sequence in this assay (Q86WV6 whole entry, looked up, stated change not applied): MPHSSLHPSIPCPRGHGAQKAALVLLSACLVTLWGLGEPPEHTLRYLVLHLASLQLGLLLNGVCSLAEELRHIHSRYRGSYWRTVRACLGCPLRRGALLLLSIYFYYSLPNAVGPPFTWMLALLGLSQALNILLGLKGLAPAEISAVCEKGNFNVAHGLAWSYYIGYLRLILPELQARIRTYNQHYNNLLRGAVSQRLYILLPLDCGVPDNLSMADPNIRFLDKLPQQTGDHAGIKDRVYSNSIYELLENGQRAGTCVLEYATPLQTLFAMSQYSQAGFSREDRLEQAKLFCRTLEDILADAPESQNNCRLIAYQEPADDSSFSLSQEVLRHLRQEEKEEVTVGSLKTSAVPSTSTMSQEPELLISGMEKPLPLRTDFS

[2] = target: Stimulator of interferon genes protein (Homo sapiens, UniProt Q86WV6, G230A/R293Q/R71H); assay: Agonist activity at STING R71H/G230A/R293Q mutant (unknown origin) expressed in digitonin -permeabilized HEK293T cells preincubated for 30 mins followed by washout and measured after 5 hrs by Bright-glo luciferase assay; format: cell-based
[3] = Agonist activity at STING R232H mutant (unknown origin) expressed in digitonin -permeabilized HEK293T cells preincubated for 30 mins followed by washout and measured after 5 hrs by Bright-glo luciferase assay; format: cell-based; settings: Homo sapiens, HEK-293T
[4] = target: Stimulator of interferon genes protein (Homo sapiens, UniProt Q86WV6, G230A/R293Q); assay: Agonist activity at STING G230A/R293Q mutant (unknown origin) expressed in digitonin -permeabilized HEK293T cells preincubated for 30 mins followed by washout and measured after 5 hrs by Bright-glo luciferase assay; format: cell-based
[5] = target: Stimulator of interferon genes protein (Homo sapiens, UniProt Q86WV6, R293Q); assay: Agonist activity at STING R293Q mutant (unknown origin) expressed in digitonin -permeabilized HEK293T cells preincubated for 30 mins followed by washout and measured after 5 hrs by Bright-glo luciferase assay; format: cell-based
[6] = target: T1, Stimulator of interferon genes protein; assay: Agonist activity at wild type STING (unknown origin) expressed in HEK293T cells preincubated for 30 mins followed by washout and measured after 6.5 hrs by Bright-glo luciferase assay; format: cell-based
Target sequence in this assay (Q86WV6 whole entry): as the sequence (Q86WV6 whole entry, looked up, stated change not applied) above

[7] = target: T1, Stimulator of interferon genes protein; assay: Agonist activity at wild type STING (unknown origin) expressed in HEK293T cells measured after 7 hrs by Bright-glo luciferase assay; format: cell-based
Target sequence in this assay (Q86WV6 whole entry): as the sequence (Q86WV6 whole entry, looked up, stated change not applied) above

[8] = Induction of cytokine production in human PBMC cells assessed as IFN-gamma level incubated for 60 mins followed by washout and measured after 15 hrs; format: functional, cell-based
[9] = Induction of cytokine production in human PBMC cells assessed as TNF-alpha level incubated for 60 mins followed by washout and measured after 15 hrs; format: functional, cell-based
[10] = Induction of cytokine production in human PBMC cells assessed as IFN-alpha level incubated for 60 mins followed by washout and measured after 15 hrs; format: functional, cell-based
4T1 [11] = assay: Antitumor immunity against mouse 4T1 cells xenografted in BALB/c syngeneic mouse model assessed as reduction in tumor volume measured upto 22 days administered as IT(Intratumoral) dose; format: functional; settings: time <= 22.0 day
[12] = Toxicity in BALB/c mouse assessed effect on body weight change at 0.67 to 6 mg/kg, IT(Intratumoral) measured upto 22 days; format: organism-based; settings: in vivo, other, 528 h, dose 0.67-6 mg/kg, time < 22 day
[13] = Toxicity in BALB/c mouse assessed effect on animal survival at 0.67 to 6 mg/kg, IT(Intratumoral) measured upto 22 days; format: organism-based; settings: in vivo, other, 528 h, dose 0.67-6 mg/kg, time < 22 day
[14] = Toxicity in BALB/c mouse assessed effect on drug tolerance at 0.67 to 6 mg/kg, IT(Intratumoral) measured upto 22 days; format: organism-based; settings: in vivo, other, 528 h, dose 0.67-6 mg/kg, time < 22 day
[15] = Toxicity in BALB/c mouse assessed body weight loss at 6 mg/kg, IT(Intratumoral) measured after 7 days relative to control; format: organism-based; settings: in vivo, other, 168 h, time 7 day
[16] = tested on: Stimulator of interferon genes protein (Homo sapiens), Q86WV6 [UNDEFINED MUTATION]; settings: filed as agonist
Description: Binding affinity to STING R232 mutant (unknown origin) assessed as change in melting temperature by differential scanning fluorimetry analysis

[17] = tested on: Stimulator of interferon genes protein (Homo sapiens), Q86WV6 [G230A,R293Q]; settings: filed as agonist
Description: Binding affinity to STING G230A/R293Q mutant (unknown origin) assessed as change in melting temperature by differential scanning fluorimetry analysis

[18] = Stability in human plasma assessed as half life at 5 uM measured upto 120 mins by UPLC/MS analysis; format: ADME, cell-free
[19] = Stability in mouse plasma assessed as half life at 5 uM measured upto 120 mins by UPLC/MS analysis; format: ADME, cell-free
4T1 [20] = assay: Antitumor immunity against mouse 4T1 cells xenografted in BALB/c syngeneic mouse model assessed as tumor growth inhibition at 2 mg/kg, IT(Intratumoral) measured upto 22 days relative to control; format: functional; settings: 4T1, 528 h, time <= 22 day, read-out: TGI
4T1 [21] = assay: Antitumor immunity against mouse 4T1 cells xenografted in BALB/c syngeneic mouse model assessed as tumor growth inhibition at 0.67 mg/kg, IT(Intratumoral) measured upto 22 days relative to control; format: functional; settings: 4T1, 528 h, time <= 22 day, read-out: TGI
[22] = Toxicity in BALB/c mouse assessed effect on body weight change at 0.22 to 2 mg/kg, IT(Intratumoral) measured upto 22 days; format: organism-based; settings: in vivo, other, 528 h, dose 0.22-2 mg/kg, time < 22 day
[23] = Toxicity in BALB/c mouse assessed effect on animal survival at 0.22 to 2 mg/kg, IT(Intratumoral) measured upto 22 days; format: organism-based; settings: in vivo, other, 528 h, dose 0.22-2 mg/kg, time < 22 day
[24] = Toxicity in BALB/c mouse assessed effect on drug tolerance at 0.22 to 2 mg/kg, IT(Intratumoral) measured upto 22 days; format: organism-based; settings: in vivo, other, 528 h, dose 0.22-2 mg/kg, time < 22 day
4T1 [25] = assay: Antitumor immunity against mouse 4T1 cells xenografted in BALB/c syngeneic mouse model assessed as increase in AH1positive CD8 T cell level at 2 mg/kg, IT(Intratumoral) measured upto 22 days; format: functional, organism-based; settings: time <= 22.0 day

Stimulator of interferon genes protein (Homo sapiens, UniProt Q86WV6, G230A/R293Q/R71H), sequence (Q86WV6 whole entry R71H/G230A/R293Q): as the sequence (Q86WV6 whole entry, looked up, stated change not applied) above, with R71H, G230A, R293Q counted along it
Stimulator of interferon genes protein (Homo sapiens), Q86WV6 [UNDEFINED MUTATION], sequence (Q86WV6 whole entry, looked up, stated change not applied): as the sequence (Q86WV6 whole entry, looked up, stated change not applied) above
Stimulator of interferon genes protein (Homo sapiens, UniProt Q86WV6, R293Q), sequence (Q86WV6 whole entry R293Q): as the sequence (Q86WV6 whole entry, looked up, stated change not applied) above, with R293Q counted along it
Stimulator of interferon genes protein (Homo sapiens), Q86WV6 [G230A,R293Q], sequence (Q86WV6 whole entry G230A/R293Q): as the sequence (Q86WV6 whole entry, looked up, stated change not applied) above, with G230A, R293Q counted along it
Stimulator of interferon genes protein (Homo sapiens, UniProt Q86WV6, G230A/R293Q), sequence (Q86WV6 whole entry G230A/R293Q): as the sequence (Q86WV6 whole entry, looked up, stated change not applied) above, with G230A, R293Q counted along it

Nc1ncnc2c1ncn2[C@@H]1O[C@@H]2/C=C\P(=O)(O)O[C@H]3[C@@H](F)[C@H](n4cnc5c(N)ncnc54)O[C@@H]3COP(=O)(O)O[C@H]2[C@H]1F
EC50 [1]: 30 nM
EC50 [2]: 100 nM
EC50 [3]: 12000 nM
EC50 [4]: 100 nM
EC50 [5]: 1050 nM
EC50 [6]: 50100 nM
EC50 [7]: 21500 nM
EC50 ([8]; Homo sapiens, PBMC): 36000 nM
EC50 ([9]; Homo sapiens, PBMC): 76000 nM
EC50 ([10]; Homo sapiens, PBMC): 110000 nM
Activity (4T1 [11]): Dose-Dependent Effect
Activity [12]: Non-Toxic
Activity [13]: Non-Toxic
Activity [14]: Non-Toxic
Activity [15]: 3%
ΔTm [16]: 6 °C
ΔTm [17]: 11.3 °C

CC1(C(=O)OCOP2(=O)/C=C/[C@H]3O[C@@H](n4cnc5c(N)ncnc54)[C@H](F)[C@@H]3OP(=O)(OCOC(=O)C3(C)CCCCC3)OC[C@H]3O[C@@H](n4cnc5c(N)ncnc54)[C@H](F)[C@@H]3O2)CCCCC1 (stereo in doubt; 14C) [listing 1 of 2 here]
EC50 [6]: 30 nM
EC50 [7]: 13 nM
EC50 ([8]; pbmc): 70 nM
EC50 ([9]; pbmc): 60 nM
EC50 ([10]; pbmc): 110 nM
half-life at 5 µM [18]: 2.17 h
half-life at 5 µM [19]: 0.35 h
inhibition in vivo at 2 mg/kg (4T1 [20]): 80%
inhibition in vivo at 0.67 mg/kg (4T1 [21]): 70%
Activity [22]: Non-Toxic
Activity [23]: Non-Toxic
Activity [24]: Non-Toxic

CC1(C(=O)OCOP2(=O)/C=C/[C@H]3O[C@@H](n4cnc5c(N)ncnc54)[C@H](F)[C@@H]3OP(=O)(OCOC(=O)C3(C)CCCCC3)OC[C@H]3O[C@@H](n4cnc5c(N)ncnc54)[C@H](F)[C@@H]3O2)CCCCC1 (stereo in doubt; 14C) [listing 2 of 2 here]
Activity (4T1 [11]): Dose-Dependent Effect
Activity (4T1 [25]): Active
